Source: patent publication US10934274B2, “Quinoline derivatives as TAM RTK inhibitors” (Qurient Co., Ltd., priority 2015, dated 2021)

Key:
[1] = biological target: T1, TYRO3 (Homo sapiens, UniProt Q06418); assay: LanthaScreen Eu kinase binding assay, TYRO3; settings: Tracer 236
T1 construct: purchased Life Technologies
T1 sequence (Q06418 41-890): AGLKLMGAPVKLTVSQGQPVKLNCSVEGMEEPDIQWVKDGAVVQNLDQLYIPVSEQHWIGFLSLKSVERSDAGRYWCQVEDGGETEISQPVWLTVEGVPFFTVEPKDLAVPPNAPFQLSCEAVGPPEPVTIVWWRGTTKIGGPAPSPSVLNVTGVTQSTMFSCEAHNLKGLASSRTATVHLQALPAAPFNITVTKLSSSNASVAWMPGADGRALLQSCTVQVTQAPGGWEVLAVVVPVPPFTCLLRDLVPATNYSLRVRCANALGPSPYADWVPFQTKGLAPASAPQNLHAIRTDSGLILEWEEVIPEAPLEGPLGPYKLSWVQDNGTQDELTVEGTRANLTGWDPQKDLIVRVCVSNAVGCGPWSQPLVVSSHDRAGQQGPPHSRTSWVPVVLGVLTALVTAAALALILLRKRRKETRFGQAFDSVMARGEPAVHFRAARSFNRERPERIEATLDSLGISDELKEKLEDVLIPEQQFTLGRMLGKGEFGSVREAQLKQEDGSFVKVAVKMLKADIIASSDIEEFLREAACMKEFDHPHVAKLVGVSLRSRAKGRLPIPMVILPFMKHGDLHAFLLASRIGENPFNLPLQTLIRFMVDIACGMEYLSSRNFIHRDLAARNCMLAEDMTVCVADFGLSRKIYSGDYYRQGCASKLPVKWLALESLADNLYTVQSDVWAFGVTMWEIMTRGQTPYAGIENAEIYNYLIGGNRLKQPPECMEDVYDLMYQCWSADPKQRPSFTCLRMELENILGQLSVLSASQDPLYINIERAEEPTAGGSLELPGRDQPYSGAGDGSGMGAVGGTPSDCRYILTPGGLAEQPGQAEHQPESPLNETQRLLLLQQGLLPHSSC
Protocol: (§1) LanthaScreen® Eu Kinase Binding assays were conducted at Life Technologies using the manufacturer's specifications for each kinase indicated.
(§2) Briefly, the principle behind this assay is based upon the binding and displacement of an Alexa Fluor 647-labeled tracer to the kinase of interest. Binding of the tracer to the kinase is detected using an EU-labeled anti-tag antibody. Simultaneous binding of both the tracer and antibody to the kinase gives rise to a FRET-signal. Binding of an inhibitor to the kinase competes for binding with the tracer, resulting in a loss of FRET-signal.
(§3) Binding Assay Protocol for AXL, Mer, Tyro3 and Met
(§4) A given compound was diluted in DMSO to make a stock compound solution. The stock compound solution was serially diluted over eight steps in DMSO. Each diluted compound solution in DMSO was diluted in kinase buffer. Afterwards four kinds of working solution were prepared. First, Tracer-Working solution consists of Tracer 236 and Kinase Buffer. Second, Axl, Mer, Tyro3 or Met/anti-GST-AB-Working solution contained one of the kinases Axl, Mer, Tyro3, Met or anti-GST-AB (=anti glutathione-S-transferase antibody) in Kinase Buffer. Third, anti-GST-AB-Working solution was made with anti-GST-AB and Kinase Buffer. Last, in the DMSO-Working solution DMSO was added to Kinase Buffer to a final concentration to 3%. Each of the four kinds of working solutions were separately added to the assay plate and then incubated for 1 h at room temperature. After incubation, the assay plate was measured with respect to the FRET-Signal with the EnVision (Perkin Elmer) using the program LanthaHTRF-Assay. Data evaluation was done in the Quattro Workflow software.
(§5) Table 1 summarises the results obtained for AXL, Mer and Tyro3-kinases binding assays; table 2 summarises the results obtained for the Met kinase binding assay.

[2] = biological target: T2, Met (Homo sapiens, UniProt P08581); assay: LanthaScreen Eu kinase binding assay, Met; settings: Tracer 236, read-out: cMet kinase binding activity (Kd)
T2 construct: purchased Life Technologies
Protocol: as §1, §2, §3, §4, §5

[3] = biological target: T3, Axl (Homo sapiens, UniProt P30530); assay: LanthaScreen Eu kinase binding assay, Axl; settings: Tracer 236
T3 construct: purchased Life Technologies
T3 sequence (P30530 26-894): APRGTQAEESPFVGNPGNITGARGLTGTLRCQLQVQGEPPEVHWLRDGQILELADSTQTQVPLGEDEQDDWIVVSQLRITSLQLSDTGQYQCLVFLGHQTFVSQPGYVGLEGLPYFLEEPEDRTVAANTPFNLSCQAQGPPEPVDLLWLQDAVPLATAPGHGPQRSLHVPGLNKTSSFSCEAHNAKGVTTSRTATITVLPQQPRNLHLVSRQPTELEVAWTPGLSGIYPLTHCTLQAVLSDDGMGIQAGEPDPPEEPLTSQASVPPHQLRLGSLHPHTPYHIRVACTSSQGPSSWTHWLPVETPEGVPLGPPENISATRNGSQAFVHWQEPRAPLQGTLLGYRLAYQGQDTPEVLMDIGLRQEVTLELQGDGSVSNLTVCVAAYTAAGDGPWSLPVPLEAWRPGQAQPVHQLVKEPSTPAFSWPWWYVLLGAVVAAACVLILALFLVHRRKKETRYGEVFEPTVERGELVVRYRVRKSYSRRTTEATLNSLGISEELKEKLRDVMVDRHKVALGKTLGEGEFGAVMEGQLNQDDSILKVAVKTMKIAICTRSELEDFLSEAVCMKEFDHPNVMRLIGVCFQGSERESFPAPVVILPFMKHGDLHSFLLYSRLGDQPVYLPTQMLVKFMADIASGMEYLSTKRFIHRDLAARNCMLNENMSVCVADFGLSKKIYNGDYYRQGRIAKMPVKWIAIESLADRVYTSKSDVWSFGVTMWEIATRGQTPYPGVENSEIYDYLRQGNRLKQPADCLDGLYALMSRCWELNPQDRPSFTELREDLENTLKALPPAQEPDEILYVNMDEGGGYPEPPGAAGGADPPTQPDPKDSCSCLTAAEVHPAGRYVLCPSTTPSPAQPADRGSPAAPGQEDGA
Protocol: as §1, §2, §3, §4, §5

[4] = biological target: T4, Mer (Homo sapiens, UniProt Q12866); assay: LanthaScreen Eu kinase binding assay, Mer; settings: Tracer 236
T4 construct: purchased Life Technologies
T4 sequence (Q12866 21-999): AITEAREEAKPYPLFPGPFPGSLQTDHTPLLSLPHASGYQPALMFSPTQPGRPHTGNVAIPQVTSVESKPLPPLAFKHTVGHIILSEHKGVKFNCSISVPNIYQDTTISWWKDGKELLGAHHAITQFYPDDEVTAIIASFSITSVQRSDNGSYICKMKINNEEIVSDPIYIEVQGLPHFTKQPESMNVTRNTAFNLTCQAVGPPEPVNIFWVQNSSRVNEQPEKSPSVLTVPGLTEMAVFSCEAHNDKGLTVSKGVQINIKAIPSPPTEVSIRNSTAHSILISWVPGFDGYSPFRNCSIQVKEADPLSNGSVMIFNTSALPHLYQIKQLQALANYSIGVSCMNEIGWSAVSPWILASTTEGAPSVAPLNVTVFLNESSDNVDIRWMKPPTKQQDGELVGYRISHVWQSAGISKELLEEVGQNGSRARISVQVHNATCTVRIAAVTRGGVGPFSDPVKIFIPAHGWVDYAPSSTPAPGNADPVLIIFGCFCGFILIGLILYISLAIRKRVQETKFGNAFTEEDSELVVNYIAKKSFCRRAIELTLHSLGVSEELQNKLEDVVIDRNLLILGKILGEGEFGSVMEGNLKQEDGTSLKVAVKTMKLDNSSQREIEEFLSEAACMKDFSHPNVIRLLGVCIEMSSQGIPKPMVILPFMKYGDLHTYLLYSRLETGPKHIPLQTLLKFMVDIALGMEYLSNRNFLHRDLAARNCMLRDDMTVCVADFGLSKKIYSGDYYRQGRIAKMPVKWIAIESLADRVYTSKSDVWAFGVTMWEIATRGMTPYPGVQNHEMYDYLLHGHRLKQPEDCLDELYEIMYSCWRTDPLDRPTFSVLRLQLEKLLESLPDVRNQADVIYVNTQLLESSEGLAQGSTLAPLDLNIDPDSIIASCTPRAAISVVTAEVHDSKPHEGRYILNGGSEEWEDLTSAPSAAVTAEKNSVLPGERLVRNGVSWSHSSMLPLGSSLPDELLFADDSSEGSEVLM
Protocol: as §1, §2, §3, §4, §5

T2 sequence (P08581 25-1390): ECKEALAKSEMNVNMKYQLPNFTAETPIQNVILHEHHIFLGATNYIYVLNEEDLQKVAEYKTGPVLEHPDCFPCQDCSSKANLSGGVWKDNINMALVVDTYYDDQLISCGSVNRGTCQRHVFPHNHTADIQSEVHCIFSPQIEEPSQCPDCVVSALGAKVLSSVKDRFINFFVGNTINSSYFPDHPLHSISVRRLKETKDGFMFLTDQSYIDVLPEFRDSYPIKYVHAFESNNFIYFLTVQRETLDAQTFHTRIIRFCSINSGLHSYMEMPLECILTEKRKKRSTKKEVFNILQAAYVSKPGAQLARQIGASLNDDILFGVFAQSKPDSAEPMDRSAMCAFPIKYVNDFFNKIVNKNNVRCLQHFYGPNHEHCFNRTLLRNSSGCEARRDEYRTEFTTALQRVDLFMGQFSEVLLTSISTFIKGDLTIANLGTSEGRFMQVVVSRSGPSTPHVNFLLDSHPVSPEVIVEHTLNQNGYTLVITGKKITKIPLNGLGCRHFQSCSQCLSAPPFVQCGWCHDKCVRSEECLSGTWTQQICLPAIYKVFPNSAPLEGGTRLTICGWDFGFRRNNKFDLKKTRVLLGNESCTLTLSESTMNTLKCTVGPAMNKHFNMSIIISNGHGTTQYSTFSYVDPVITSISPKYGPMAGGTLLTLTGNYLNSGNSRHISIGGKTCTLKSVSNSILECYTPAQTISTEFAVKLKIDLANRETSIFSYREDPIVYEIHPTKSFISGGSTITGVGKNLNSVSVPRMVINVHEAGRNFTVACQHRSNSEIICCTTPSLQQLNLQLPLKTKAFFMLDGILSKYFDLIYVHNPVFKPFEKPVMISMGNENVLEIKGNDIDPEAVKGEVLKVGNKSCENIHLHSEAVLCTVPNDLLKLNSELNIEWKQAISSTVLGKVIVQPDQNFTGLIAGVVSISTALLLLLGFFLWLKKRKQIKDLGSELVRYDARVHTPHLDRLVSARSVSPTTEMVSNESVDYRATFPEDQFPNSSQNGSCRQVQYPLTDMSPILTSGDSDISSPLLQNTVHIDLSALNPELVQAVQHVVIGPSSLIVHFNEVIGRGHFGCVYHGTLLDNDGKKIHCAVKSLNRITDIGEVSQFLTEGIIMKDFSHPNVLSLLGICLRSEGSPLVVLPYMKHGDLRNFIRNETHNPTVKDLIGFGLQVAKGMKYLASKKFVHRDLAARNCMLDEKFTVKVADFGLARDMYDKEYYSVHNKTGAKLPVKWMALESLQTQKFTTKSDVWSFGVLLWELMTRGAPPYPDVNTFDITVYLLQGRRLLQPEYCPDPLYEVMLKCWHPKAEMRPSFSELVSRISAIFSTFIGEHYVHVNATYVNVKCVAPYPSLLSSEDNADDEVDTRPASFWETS

| Kd [1] [nM] | Kd [2] [nM] | Kd [3] [nM] | Kd [4] [nM] | SMILES |
| --- | --- | --- | --- | --- |
| < 100 | < 100 | < 100 | < 100 | CCOc1cn(-c2cncnc2)nc1C(=O)Nc1ccc(Oc2ccnc3cc(OC)c(OC)cc23)cn1 [Compound 2] |
| ≥ 1000 | 100 to 1000 | ≥ 1000 | 100 to 1000 | CCOc1cnn(-c2cncn2C)c1C(=O)Nc1ccc(Oc2ccnc3cc(OC)c(OC)cc23)cn1 [Compound 15] |
| < 100 | 100 to 1000 | 100 to 1000 | < 100 | CCOc1c[nH]nc1C(=O)Nc1ccc(Oc2ccnc3cc(OC)c(OC)cc23)cn1 [Compound 22] |
| ≥ 1000 | 100 to 1000 | 100 to 1000 | < 100 | CCOc1cn(-c2ccc(NC(C)C)cc2Cl)nc1C(=O)Nc1ccc(Oc2ccnc3cc(OC)c(OC)cc23)cn1 [Compound 24] |
| ≥ 1000 | ≥ 1000 | 100 to 1000 | ≥ 1000 | CCOc1cnn(-c2ccoc2)c1C(=O)Nc1ccc(Oc2ccnc3cc(OC)c(OC)cc23)cn1 [Compound 25] |
| ≥ 1000 | 100 to 1000 | 100 to 1000 | 100 to 1000 | CCOc1cnn(CC)c1C(=O)Nc1ccc(Oc2ccnc3cc(OC)c(OC)cc23)cn1 [Compound 28] |
| ≥ 1000 | ≥ 1000 | 100 to 1000 | < 100 | CCOc1cn(CC(N)=O)nc1C(=O)Nc1ccc(Oc2ccnc3cc(OC)c(OC)cc23)cn1 [Compound 35] |
| ≥ 1000 | 100 to 1000 | 100 to 1000 | < 100 | CCOc1cnn(CCn2cccn2)c1C(=O)Nc1ccc(Oc2ccnc3cc(OC)c(OC)cc23)cn1 [Compound 42] |
| ≥ 1000 | ≥ 1000 | ≥ 1000 | ≥ 1000 | CCOc1nn(-c2cccnc2)cc1C(=O)Nc1ccc(Oc2ccnc3cc(OC)c(OC)cc23)cn1 [Compound 46] |
| ≥ 1000 | ≥ 1000 | 100 to 1000 | 100 to 1000 | CCOc1cn(-c2cccnc2)nc1C(=O)Nc1ncc(Oc2ccnc3cc(OC)c(OC)cc23)cn1 [Compound 47] |
| 100 to 1000 | 100 to 1000 | 100 to 1000 | < 100 | CCOc1cn(CCN(C)C)nc1C(=O)Nc1ccc(Oc2ccnc3cc(OC)c(OC)cc23)cn1 [Compound 49] |
| ≥ 1000 | ≥ 1000 | 100 to 1000 | ≥ 1000 | CCOc1cn(-c2ccc(C#N)nc2)nc1C(=O)Nc1ccc(Oc2ccnc3cc(OC)c(OC)cc23)cn1 [Compound 50] |
| ≥ 1000 | 100 to 1000 | 100 to 1000 | 100 to 1000 | CCOc1cnn(CC2CCO2)c1C(=O)Nc1ccc(Oc2ccnc3cc(OC)c(OC)cc23)cn1 (centres unmarked) [Compound 51] |
| ≥ 1000 | ≥ 1000 | ≥ 1000 | ≥ 1000 | CCOc1cnn(CCN(C)C)c1C(=O)Nc1ccc(Oc2ccnc3cc(OC)c(OC)cc23)cn1 [Compound 52] |
| ≥ 1000 | ≥ 1000 | ≥ 1000 | ≥ 1000 | CCOc1cnn(-c2ccc(C#N)nc2)c1C(=O)Nc1ccc(Oc2ccnc3cc(OC)c(OC)cc23)cn1 [Compound 53] |
| ≥ 1000 | ≥ 1000 | ≥ 1000 | ≥ 1000 | CCOc1cn(-c2cnc(C#N)cn2)nc1C(=O)Nc1ccc(Oc2ccnc3cc(OC)c(OC)cc23)cn1 [Compound 54] |
| ≥ 1000 | ≥ 1000 | ≥ 1000 | ≥ 1000 | CCOc1cn(-c2cccnc2)nc1C(=O)Nc1cnc(Oc2ccnc3cc(OC)c(OC)cc23)nc1 [Compound 60] |
| ≥ 1000 | ≥ 1000 | 100 to 1000 | < 100 | CCOc1cn(CC(=O)O)nc1C(=O)Nc1ccc(Oc2ccnc3cc(OC)c(OC)cc23)cn1 [Compound 62] |
| 100 to 1000 | 100 to 1000 | 100 to 1000 | 100 to 1000 | CCOc1cn(CCC(=O)O)nc1C(=O)Nc1ccc(Oc2ccnc3cc(OC)c(OC)cc23)cn1 [Compound 63] |
| 100 to 1000 | 100 to 1000 | 100 to 1000 | < 100 | CCOc1cn(CCC(=O)NC)nc1C(=O)Nc1ccc(Oc2ccnc3cc(OC)c(OC)cc23)cn1 [Compound 67] |
| ≥ 1000 | 100 to 1000 | ≥ 1000 | 100 to 1000 | CCOc1cn(C2CCNC2)nc1C(=O)Nc1ccc(Oc2ccnc3cc(OC)c(OC)cc23)cn1 (centres unmarked) [Compound 69] |
| 100 to 1000 | 100 to 1000 | 100 to 1000 | < 100 | CCOc1cn(CCO)nc1C(=O)Nc1ccc(Oc2ccnc3cc(OC)c(OC)cc23)cn1 [Compound 70] |
| ≥ 1000 | 100 to 1000 | ≥ 1000 | 100 to 1000 | CCOc1cnn(C2CCNC2)c1C(=O)Nc1ccc(Oc2ccnc3cc(OC)c(OC)cc23)cn1 (centres unmarked) [Compound 71] |
